# Measurements reported in patent USRE38520E1, “Erythromycin derivatives, method for preparing same, and use thereof as drugs” (Aventis Pharma S.A., priority 1996, dated 2004).
# Key:
# Assay in all cases: Method of dilutions in liquid medium (M.I.C.)
# Format in all cases: cell-based
# Conditions in all cases: incubation twenty-four hours at 37° C.
# [1] = test system: Streptoccocus faecalis group C 02D2UCI
# Description: (§1) Method of Dilutions in Liquid Medium A series of tubes were prepared into which the same quantity of sterile nutritive medium is distributed. Increasing quantities of the product to be studied are distributed into each tube, then each tube is seeded with a bacterial strain. After incubation for twenty-four hours in a heating chamber at 37° C., the growth inhibition is evaluated by transillumination, which permits the minimal inhibitory concentrations (M.I.C.) to be determined, expressed in micrograms/cm^3.
# [2] = test system: Streptoccocus sp. group G 02GRGR5
# Description: as §1
# [3] = test system: Streptoccocus faecium group D 02D2UCI
# Description: as §1
# [4] = test system: Streptoccocus aritis 02mmGR01
# Description: as §1
# [5] = test system: Streptoccocus agalactae group B 02B1811
# Description: as §1
# [6] = test system: Staphylococtus aureus 011UC4
# Description: as §1
# [7] = test system: Streptoccocus aritis 02mmCH1
# Description: as §1
# [8] = test system: Streptoccocus pyogenes group A 02A1UCI
# Description: as §1
# [9] = test system: Streptoccocus agalactae group B 02B1UTI
# Description: as §1
# [10] = test system: Streptoccocus pneumoniae 031515
# Description: as §1
Compound,minimal inhibitory concentrations (M.I.C.) [1],minimal inhibitory concentrations (M.I.C.) [2],minimal inhibitory concentrations (M.I.C.) [3],minimal inhibitory concentrations (M.I.C.) [4],minimal inhibitory concentrations (M.I.C.) [5],minimal inhibitory concentrations (M.I.C.) [6],minimal inhibitory concentrations (M.I.C.) [7],minimal inhibitory concentrations (M.I.C.) [8],minimal inhibitory concentrations (M.I.C.) [9],minimal inhibitory concentrations (M.I.C.) [10]
"11,12-dideoxy-3-de((2,6-dideoxy-3-C-methyl-3-O-methyl-alpha-L-ribohexopyranosyl)oxy)-3-hydroxy-6-O-methyl-12,11-(oxycarbonyl(2-(3-(4-quinolinyl)propyl)hydrazono)) erythromycin [Ex. 1]",0.04 micrograms/cm^3,0.04 micrograms/cm^3,0.04 micrograms/cm^3,0.15 micrograms/cm^3,0.6 micrograms/cm^3,0.3 micrograms/cm^3,0.3 micrograms/cm^3,0.04 micrograms/cm^3,≦0.02 micrograms/cm^3,0.6 micrograms/cm^3
"CC[C@H]1OC(=O)[C@H](C)[C@@H](O)[C@H](C)[C@@H](O[C@@H]2O[C@H](C)C[C@H](N(C)C)[C@H]2O)[C@](C)(OC)C[C@@H](C)C(=O)[C@H](C)[C@H]2N(CCCCn3cnc(-c4cccnc4)c3)C(=O)O[C@]12C [Ex. 2, 11,12-dideoxy-3-d((2,6-dideoxy-3-C-methyl-3-O-methyl-alpha-L-ribohexopyranosyl)oxy)-3-hydroxy-6-O-methyl-12,11-(oxycarbonyl((4-(4-(3-pyridinyl)-1H-imidazol-1-yl)-butyl)imino))-erythromycin]",0.3 micrograms/cm^3,0.15 micrograms/cm^3,0.3 micrograms/cm^3,0.6 micrograms/cm^3,1.2 micrograms/cm^3,,0.34 micrograms/cm^3,0.15 micrograms/cm^3,0.04 micrograms/cm^3,1 micrograms/cm^3
